Measured values reported in patent publication US8574563B2 (Bristol-Myers Squibb Company, priority 2006, dated 2013).

tested on: HCV 1b-377-neo replicon cells; assay: HCV replicon assay, HCV 1b-377-neo replicon cells (1b FRET); assay type: cell-based, Hepatitis C virus genotype 1b; conditions: Hepatitis C virus, HCV 1b-377-neo replicon cells; HCV 1b genotype; read-out: EC50 range against HCV 1b (Table 2, Range)
Outline: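 Compounds tested in HCV genotype 1b-377-neo replicon cells with a FRET read-out. Cells resistant to a reference NS5A inhibitor through a Y2065H NS5A mutation were run alongside wild-type cells.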

Row | Compound | EC50
1 | COC(=O)N[C@@H](C)C(=O)N1CCC[C@H]1c1ncc(-c2ccc(-c3ccc(-c4cnc([C@@H]5CCCN5C(=O)[C@H]5CCCC[C@H]5NC(=O)OC)[nH]4)cc3)cc2)[nH]1 [cj-96, methyl ((1R,2S)-2-(((2S)-2-(5-(4′-(2-((2S)-1-(N-(methoxycarbonyl)-L-alanyl)-2-pyrrolidinyl)-1H-imidazol-5-yl)-4-biphenylyl)-1H-imidazol-2-yl)-1-pyrrolidinyl)carbonyl)cyclohexyl)carbamate] | 0.001 to 0.999 nM
2 | COC(=O)N[C@@H](C(=O)N1CCC[C@H]1c1ncc(-c2ccc(-c3ccc(-c4cnc([C@@H]5CCCN5C(=O)CC5CCCCC5)[nH]4)cc3)cc2)[nH]1)c1ccccc1 [Example 84-75, methyl ((1R)-2-((2S)-2-(5-(4′-(2-((2S)-1-(cyclohexylacetyl)-2-pyrrolidinyl)-1H-imidazol-5-yl)-4-biphenylyl)-1H-imidazol-2-yl)-1-pyrrolidinyl)-2-oxo-1-phenylethyl)carbamate] | 1 to 99 nM
3 | COC(=O)N[C@@H](Cc1ccc(OP(=O)(O)OC)cc1)C(=O)N1CCC[C@H]1c1ncc(-c2ccc(-c3ccc(-c4cnc([C@@H]5CCCN5C(=O)[C@@H](NC(=O)OC)C(C)C)[nH]4)cc3)cc2)[nH]1 [cj-91, methyl ((1S)-1-(((2S)-2-(5-(4′-(2-((2S)-1-(O-(hydroxy(methoxy)phosphoryl)-N-(methoxycarbonyl)-L-tyrosyl)-2-pyrrolidinyl)-1H-imidazol-5-yl)-4-biphenylyl)-1H-imidazol-2-yl)-1-pyrrolidinyl)carbonyl)-2-methylpropyl)carbamate] | 0.001 to 0.999 nM
4 | COC(=O)N[C@@H](C(=O)N1CCC[C@H]1c1nc(-c2ccc(-c3ccc(-c4cnc([C@@H]5CC6CCCCC6N5C(=O)[C@H](NC(=O)OC)c5ccccc5)[nH]4)cc3)cc2)c[nH]1)c1ccccc1 (relative stereo) [Example F8, methyl rel-((1R)-2-((2S)-2-(4-(4′-(2-((2S)-1-((2R)-2-((methoxycarbonyl)amino)-2-phenylacetyl)octahydro-1H-indol-2-yl)-1H-imidazol-5-yl)-4-biphenylyl)-1H-imidazol-2-yl)-1-pyrrolidinyl)-2-oxo-1-phenylethyl)carbamate] | 0.001 to 0.999 nM
5 | O=C([C@H]1CCCO1)N1CCC[C@H]1c1ncc(-c2ccc(-c3ccc(-c4cnc([C@@H]5CCCN5C(=O)[C@@H](c5ccccc5)N5CCCCC5)[nH]4)cc3)cc2)[nH]1 [Example 28-2, 1-((1R)-2-oxo-1-phenyl-2-((2S)-2-(5-(4′-(2-((2S)-1-((2R)-tetrahydro-2-furanylcarbonyl)-2-pyrrolidinyl)-1H-imidazol-5-yl)-4-biphenylyl)-1H-imidazol-2-yl)-1-pyrrolidinyl)ethyl)piperidine] | 0.001 to 0.999 nM
6 | CCN(CC)[C@H]1CC[C@@H](C(=O)N2CCC[C@H]2c2ncc(-c3ccc(-c4ccc(-c5cnc([C@@H]6CCCN6C(=O)[C@H]6CCCC[C@H]6NC(=O)OC)[nH]5)cc4)cc3)[nH]2)CC1 [cj-97, methyl ((1R,2S)-2-(((2S)-2-(5-(4′-(2-((2S)-1-((cis-4-(diethylamino)cyclohexyl)carbonyl)-2-pyrrolidinyl)-1H-imidazol-5-yl)-4-biphenylyl)-1H-imidazol-2-yl)-1-pyrrolidinyl)carbonyl)cyclohexyl)carbamate] | 0.001 to 0.999 nM
7 | CN(C)[C@@H](C(=O)N1CCC[C@H]1c1ncc(-c2ccc(-c3ccc(-c4cnc([C@@H]5CCCN5C(=O)C(c5ccccc5)c5ccccc5)[nH]4)cc3)cc2)[nH]1)c1ccccc1 [Example 94-36, (1R)-2-((2S)-2-(5-(4′-(2-((2S)-1-(diphenylacetyl)-2-pyrrolidinyl)-1H-imidazol-5-yl)-4-biphenylyl)-1H-imidazol-2-yl)-1-pyrrolidinyl)-N,N-dimethyl-2-oxo-1-phenylethanamine] | 0.001 to 0.999 nM
8 | CCN(CC)[C@@H](C(=O)N1CCC[C@H]1c1ncc(-c2ccc(-c3ccc(-c4cnc([C@@H]5CCCN5C(=O)C[C@@H](Cc5ccccc5)NC(=O)OC)[nH]4)cc3)cc2)[nH]1)c1ccccc1 [cj-58, methyl ((1R)-1-benzyl-3-((2S)-2-(5-(4′-(2-((2S)-1-((2R)-2-(diethylamino)-2-phenylacetyl)-2-pyrrolidinyl)-1H-imidazol-5-yl)-4-biphenylyl)-1H-imidazol-2-yl)-1-pyrrolidinyl)-3-oxopropyl)carbamate] | 0.001 to 0.999 nM
9 | COC(=O)Cc1[nH]c([C@@H]2CCCN2C(=O)[C@@H](NC(=O)OC)[C@@H](C)OC)nc1-c1ccc(-c2ccc(-c3cnc([C@@H]4CCCN4C(=O)[C@@H](NC(=O)OC)[C@@H](C)OC)[nH]3)cc2)cc1 [Example J14b, methyl (2-((2S)-1-(N-(methoxycarbonyl)-O-methyl-L-threonyl)-2-pyrrolidinyl)-4-(4′-(2-((2S)-1-(N-(methoxycarbonyl)-O-methyl-L-threonyl)-2-pyrrolidinyl)-1H-imidazol-4-yl)-4-biphenylyl)-1H-imidazol-5-yl)acetate] | 0.001 to 0.999 nM
10 | COC(=O)NC(C(=O)N1CCC[C@H]1c1nc(-c2ccc(-c3ccc(-c4cnc([C@@H]5CCCN5C(=O)C(NC(=O)OC)C5CCOCC5)[nH]4)cc3)cc2)c[nH]1)C1CCOCC1 (stereo partly drawn) [Example F39, methyl (2-((2S)-2-(4-(4′-(2-((2S)-1-(((methoxycarbonyl)amino)(tetrahydro-2H-pyran-4-yl)acetyl)-2-pyrrolidinyl)-1H-imidazol-5-yl)-4-biphenylyl)-1H-imidazol-2-yl)-1-pyrrolidinyl)-2-oxo-1-(tetrahydro-2H-pyran-4-yl)ethyl)carbamate] | 0.001 to 0.999 nM
11 | COC(=O)N[C@H](C(=O)N1CCC[C@H]1c1nc(-c2cnc(-c3ccc(-c4cnc([C@@H]5CCCN5C(=O)[C@@H](NC(=O)OC)C5CC5)[nH]4)cc3)nc2)c[nH]1)C1CC1 [Example D75, methyl ((1S)-1-cyclopropyl-2-((2S)-2-(5-(2-(4-(2-((2S)-1-((2S)-2-cyclopropyl-2-((methoxycarbonyl)amino)acetyl)-2-pyrrolidinyl)-1H-imidazol-5-yl)phenyl)-5-pyrimidinyl)-1H-imidazol-2-yl)-1-pyrrolidinyl)-2-oxoethyl)carbamate] | 0.001 to 0.999 nM
12 | COC(=O)N[C@@H](C(=O)N1CCC[C@H]1c1ncc(-c2ccc(-c3ncc(-c4cnc([C@@H]5CCCN5C(=O)Cc5cccnc5)[nH]4)cn3)cc2)[nH]1)c1ccccc1 [Example 152j-3, methyl ((1R)-2-oxo-1-phenyl-2-((2S)-2-(5-(4-(5-(2-((2S)-1-(3-pyridinylacetyl)-2-pyrrolidinyl)-1H-imidazol-5-yl)-2-pyrimidinyl)phenyl)-1H-imidazol-2-yl)-1-pyrrolidinyl)ethyl)carbamate] | 0.001 to 0.999 nM
13 | CN(C)[C@@H](C(=O)N1CCC[C@H]1c1ncc(-c2ccc(-c3cnc(-c4cnc([C@@H]5CCCN5C(=O)[C@@H](c5ccccc5)N(C)C)[nH]4)cn3)cc2)[nH]1)c1ccccc1 [Example 152j-7, (1R)-2-((2S)-2-(5-(5-(4-(2-((2S)-1-((2R)-2-(dimethylamino)-2-phenylacetyl)-2-pyrrolidinyl)-1H-imidazol-5-yl)phenyl)-2-pyrazinyl)-1H-imidazol-2-yl)-1-pyrrolidinyl)-N,N-dimethyl-2-oxo-1-phenylethanamine] | 1 to 99 nM
14 | COC(=O)N[C@H](C(=O)N1CCC[C@H]1c1ncc(-c2cnc(-c3ccc(-c4[nH]c([C@@H]5CCCN5C(=O)[C@@H](NC(=O)OC)C(C)C)nc4C(F)(F)F)cc3)nc2)[nH]1)C(C)C [Example J48, methyl ((1S)-1-(((2S)-2-(5-(2-(4-(2-((2S)-1-((2S)-2-((methoxycarbonyl)amino)-3-methylbutanoyl)-2-pyrrolidinyl)-4-(trifluoromethyl)-1H-imidazol-5-yl)phenyl)-5-pyrimidinyl)-1H-imidazol-2-yl)-1-pyrrolidinyl)carbonyl)-2-methylpropyl)carbamate] | 0.001 to 0.999 nM
15 | CCN(CC)[C@H](C)C(=O)N1CCC[C@H]1c1ncc(-c2ccc(-c3ccc(-c4cnc([C@@H]5CCCN5C(=O)[C@H](NC(=O)OC)c5ccccc5)[nH]4)cc3)cc2)[nH]1 [Example M63, methyl ((1R)-2-((2S)-2-(5-(4′-(2-((2S)-1-(N,N-diethyl-D-alanyl)-2-pyrrolidinyl)-1H-imidazol-5-yl)-4-biphenylyl)-1H-imidazol-2-yl)-1-pyrrolidinyl)-2-oxo-1-phenylethyl)carbamate] | 1 to 99 nM
16 | COC(=O)N[C@@H](Cc1ccc(OP(=O)(O)OC)cc1)C(=O)N1CCC[C@H]1c1ncc(-c2ccc(-c3ccc(-c4cnc([C@@H]5CCCN5C(=O)[C@@H](NC(=O)OC)[C@@H](C)OC)[nH]4)cc3)cc2)[nH]1 [cj-92, methyl ((1S,2R)-1-(((2S)-2-(5-(4′-(2-((2S)-1-(O-(hydroxy(methoxy)phosphoryl)-N-(methoxycarbonyl)-L-tyrosyl)-2-pyrrolidinyl)-1H-imidazol-5-yl)-4-biphenylyl)-1H-imidazol-2-yl)-1-pyrrolidinyl)carbonyl)-2-methoxypropyl)carbamate] | 1 to 99 nM
17 | COC(=O)N[C@H](C(=O)N1CCC[C@H]1c1ncc(-c2ccc(-c3ccc(-c4[nH]c([C@@H]5CCCN5C(=O)[C@@H](NC(=O)OC)C(C)C)nc4CC4OCCCO4)cc3)cc2)[nH]1)C(C)C [Example J14, methyl ((1S)-1-(((2S)-2-(4-(1,3-dioxan-2-ylmethyl)-5-(4′-(2-((2S)-1-((2S)-2-((methoxycarbonyl)amino)-3-methylbutanoyl)-2-pyrrolidinyl)-1H-imidazol-4-yl)-4-biphenylyl)-1H-imidazol-2-yl)-1-pyrrolidinyl)carbonyl)-2-methylpropyl)carbamate] | 0.001 to 0.999 nM
18 | CCN(CC)[C@@H](C(=O)N1CCC[C@H]1c1ncc(-c2ccc(-c3ccc(-c4cnc([C@@H]5CCCN5C(=O)[C@@H](NC(=O)OC)C5CC5)[nH]4)cc3)cc2)[nH]1)c1ccccc1 [Example M57, methyl ((1S)-1-cyclopropyl-2-((2S)-2-(5-(4′-(2-((2S)-1-((2R)-2-(diethylamino)-2-phenylacetyl)-2-pyrrolidinyl)-1H-imidazol-5-yl)-4-biphenylyl)-1H-imidazol-2-yl)-1-pyrrolidinyl)-2-oxoethyl)carbamate] | 1 to 99 nM
